According to US20240228482A1, “COMPOUNDS, COMPOSITIONS AND METHODS OF TREATING CANCER” (HOTSPOT THERAPEUTICS, INC., priority 2021, published 2024):

Target: T1, CBL-B (Homo sapiens, UniProt Q13191)
T1 construct: GST
Test: CBL-B TR-FRET IC50 screening (E1/E2 ubiquitination, Biotin-Ubiquitin, Anti GST-Tb donor / Streptavidin-d2 acceptor)
Type: biochemical
Conditions: CBL-B 10 nM final; 11-point titration from 100 uM; binned A-F; read-out: CBL-B TR-FRET activity IC50

T1 sequence (Q13191 whole entry): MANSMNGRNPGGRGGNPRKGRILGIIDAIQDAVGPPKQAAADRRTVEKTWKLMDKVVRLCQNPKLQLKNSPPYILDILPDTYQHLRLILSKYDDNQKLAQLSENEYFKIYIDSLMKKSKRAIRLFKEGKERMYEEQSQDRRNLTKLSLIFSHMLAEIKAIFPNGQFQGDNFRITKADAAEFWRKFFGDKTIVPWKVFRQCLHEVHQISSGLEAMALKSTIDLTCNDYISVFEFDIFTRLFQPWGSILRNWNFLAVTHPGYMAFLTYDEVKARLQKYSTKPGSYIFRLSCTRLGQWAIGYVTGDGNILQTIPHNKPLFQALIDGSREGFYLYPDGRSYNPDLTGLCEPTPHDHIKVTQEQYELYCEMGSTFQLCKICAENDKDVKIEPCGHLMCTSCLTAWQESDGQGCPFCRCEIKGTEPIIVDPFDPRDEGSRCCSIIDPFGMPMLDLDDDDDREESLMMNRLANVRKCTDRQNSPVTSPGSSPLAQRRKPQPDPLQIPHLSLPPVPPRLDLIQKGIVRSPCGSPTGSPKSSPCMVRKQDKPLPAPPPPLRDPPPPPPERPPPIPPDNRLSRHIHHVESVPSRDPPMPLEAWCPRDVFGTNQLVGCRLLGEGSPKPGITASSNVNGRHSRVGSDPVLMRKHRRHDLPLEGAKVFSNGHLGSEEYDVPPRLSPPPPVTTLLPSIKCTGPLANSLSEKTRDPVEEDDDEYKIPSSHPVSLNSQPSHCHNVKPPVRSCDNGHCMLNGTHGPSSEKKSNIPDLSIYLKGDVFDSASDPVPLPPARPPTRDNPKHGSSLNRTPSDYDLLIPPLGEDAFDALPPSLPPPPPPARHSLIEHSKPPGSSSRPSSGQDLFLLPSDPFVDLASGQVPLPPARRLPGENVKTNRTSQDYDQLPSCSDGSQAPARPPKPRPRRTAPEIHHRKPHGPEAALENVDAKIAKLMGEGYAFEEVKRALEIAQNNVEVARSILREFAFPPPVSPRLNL

Row | SMILES | IC50
1 | Cn1cnnc1CC1(c2cccc(-n3cc4c(C(F)(F)F)cc(C5CCNC5)cn4c3=O)c2)COC1 (stereo not drawn) [Compound 80] | 301 to 1000 nM
2 | CN1CCC(c2cc(C(F)(F)F)c3cn(-c4cccc(C5(Cc6nncn6C)COC5)c4)c(=O)n3c2)C1 (stereo not drawn) [Compound 83] | > 10000 nM
3 | CN1CCCC(c2cc(C(F)(F)F)c3cn(-c4cccc(C5(Cc6nncn6C)COC5)c4)c(=O)n3c2)C1 (stereo not drawn) [Compound 84] | > 10000 nM
4 | C[C@H]1CCCN(Cc2cc(C(F)(F)F)c3cn(-c4cccc([C@H](c5nncn5C)C5CCC5)c4)c(=O)n3c2)C1 [Compound 85] | < 100 nM
5 | C[C@H]1CCCN(Cc2cc(C(F)(F)F)c3cn(-c4cccc([C@@H](c5nncn5C)C5CCC5)c4)c(=O)n3c2)C1 [Compound 86] | 301 to 1000 nM
6 | CN(C)C1CCC(c2cc(C(F)(F)F)c3cn(-c4cccc(C5(Cc6nncn6C)COC5)c4)c(=O)n3c2)CC1 (stereo not drawn) [Compound 87] | 100 to 300 nM
7 | COc1cc(C(F)(F)F)c2cn(-c3cccc(C4(Cc5nncn5C)COC4)c3)c(=O)n2c1 [Compound 88] | 1000 to 3000 nM
8 | Cn1cnnc1CC1(c2cccc(-n3cc4c(C(F)(F)F)cc(C#CCN5CCCC5)cn4c3=O)c2)COC1 [Compound 89] | 100 to 300 nM
9 | Cn1cnnc1CC1(c2cccc(-n3cc4c(C(F)(F)F)cc(COCCO)cn4c3=O)c2)COC1 [Compound 90] | 100 to 300 nM
10 | O=c1n(-c2cccc(C3(Cc4nncn4C(F)F)COC3)c2)cc2c(C(F)(F)F)cc(CN3CCC4(CC4)C3)cn12 [Compound 91] | < 100 nM
11 | Cn1cnnc1CC1(c2cccc(-n3cc4c(C(F)(F)F)cc(CCC(=O)O)cn4c3=O)c2)COC1 [Compound 92] | 301 to 1000 nM
12 | Cn1cnnc1CC1(c2cccc(-n3cc4c(C(F)(F)F)cc(Cl)cn4c3=O)c2)COC1 [Compound 93] | 100 to 300 nM
13 | Cn1cnnc1CC1(c2cccc(-n3cc4c(C=O)cccn4c3=O)c2)COC1 [Compound 94] | 3000 to 10000 nM
14 | Cn1cnnc1CC1(c2cccc(-n3cc4c(C(F)F)cccn4c3=O)c2)COC1 [Compound 95] | 301 to 1000 nM
15 | Cn1cnnc1CC1(c2cccc(-n3cc4c(C(F)(F)F)cc(OCC(C)(C)O)cn4c3=O)c2)COC1 [Compound 98] | 100 to 300 nM
16 | Cn1cnnc1CC1(c2cccc(-n3cc4c(C(F)(F)F)cc(C(C)(C)O)cn4c3=O)c2)COC1 [Compound 101] | 1000 to 3000 nM
17 | [2H]C([2H])([2H])n1cnnc1C1(c2cccc(-n3cc4c(C(F)(F)F)cc(CN5CCC[C@H](C)C5)cn4c3=O)c2)CC2(CC2)C1 [Compound 102] | < 100 nM
18 | Cn1cnnc1C1(c2cccc(-n3cc4c(C(F)(F)F)cc(Br)cn4c3=O)c2)CC2(CC2)C1 [Compound 103] | 100 to 300 nM
19 | Cn1cnnc1CC1(c2cccc(-n3cc4c(C(F)(F)F)cc(F)cn4c3=O)c2)COC1 [Compound 104] | 100 to 300 nM

Row | SMILES | IC50
20 | COc1cc(-n2cc3c(C(F)(F)F)cc(Br)cn3c2=O)cc(C2(Cc3nncn3C)COC2)c1 [Compound 105] | 100 to 300 nM
21 | Cn1cnnc1CC1(c2cccc(-n3cc4c(C(F)(F)F)cc(CN5CCNC(=O)C5)cn4c3=O)c2)COC1 [Compound 106] | 100 to 300 nM
22 | COc1cc(-n2cc3c(C(F)(F)F)cc(CN4CCC[C@H](C)C4)cn3c2=O)cc(C2(Cc3nncn3C)COC2)c1 [Compound 107] | < 100 nM
23 | COc1cc(-n2cc3c(C(F)(F)F)cc(CN4CCC5(CC5)C4)cn3c2=O)cc(C2(Cc3nncn3C)COC2)c1 [Compound 108] | < 100 nM
24 | COc1cc(-n2cc3c(C(F)(F)F)cc(CN4CC[C@H](F)C4)cn3c2=O)cc(C2(Cc3nncn3C)COC2)c1 [Compound 109] | < 100 nM
25 | COc1cc(-n2cc3c(C(F)(F)F)cc(CN4CC5(CC5)C4)cn3c2=O)cc(C2(Cc3nncn3C)COC2)c1 [Compound 110] | < 100 nM
26 | Cn1cnnc1C1(c2cccc(-n3cc4c(C(F)(F)F)cc(CN5CCC(C)(F)CC5)cn4c3=O)c2)CC2(CC2)C1 [Compound 111] | < 100 nM
27 | Cn1cnnc1C1(c2cccc(-n3cc4c(C(F)(F)F)cc(CN5CCC(F)CC5)cn4c3=O)c2)CC2(CC2)C1 [Compound 112] | < 100 nM
28 | Cn1cnnc1C1(c2cccc(-n3cc4c(C(F)(F)F)cc(C#N)cn4c3=O)c2)CC2(CC2)C1 [Compound 113] | 301 to 1000 nM
29 | Cn1cnnc1C1(c2cccc(-n3cc4c(C(F)(F)F)cc(CN5CC6(CC6)C5)cn4c3=O)c2)CC2(CC2)C1 [Compound 114] | < 100 nM
30 | Cn1cnnc1C1(c2cccc(-n3cc4c(C(F)(F)F)cc(CN5CCC6(CC6)C5)cn4c3=O)c2)CC2(CC2)C1 [Compound 115] | < 100 nM
31 | C[C@@H]1CN(Cc2cc(C(F)(F)F)c3cn(-c4cccc(C5(c6nncn6C)CC6(CC6)C5)c4)c(=O)n3c2)CCO1 [Compound 116] | < 100 nM
32 | Cn1cnnc1C1(c2cccc(-n3cc4c(C(F)(F)F)cc(CN5CC[C@H](F)C5)cn4c3=O)c2)CC2(CC2)C1 [Compound 117] | < 100 nM
33 | [2H]C([2H])([2H])n1cnnc1C1(c2cccc(-n3cc4c(C(F)(F)F)cc(CN5CCO[C@H](C)C5)cn4c3=O)c2)CC2(CC2)C1 [Compound 118] | < 100 nM
34 | COc1cc(-n2cc3c(C(F)(F)F)cc(CN4CCC(C)(F)CC4)cn3c2=O)cc(C2(Cc3nncn3C)COC2)c1 [Compound 121] | < 100 nM
35 | CO[C@H]1CCCN(Cc2cc(C(F)(F)F)c3cn(-c4cccc(C5(Cc6nncn6C)COC5)c4)c(=O)n3c2)C1 [Compound 123] | < 100 nM
36 | CO[C@@H]1CCCN(Cc2cc(C(F)(F)F)c3cn(-c4cccc(C5(Cc6nncn6C)COC5)c4)c(=O)n3c2)C1 [Compound 124] | < 100 nM
37 | Cn1cnnc1CC1(c2cccc(-n3cc4c(C(F)(F)F)cc(CN5CCC[C@H](O)C5)cn4c3=O)c2)COC1 [Compound 125] | < 100 nM
38 | Cn1cnnc1CC1(c2cccc(-n3cc4c(C(F)(F)F)cc(CN5CCC[C@@H](O)C5)cn4c3=O)c2)COC1 [Compound 126] | < 100 nM

Further lines, results first:

Row | IC50 | SMILES
39 | 301 to 1000 nM | Cn1cnnc1C(c1cccc(-n2cc3c(C(F)(F)F)cc(Br)cn3c2=O)c1)C1COC1 (stereo not drawn) [Compound 127]
40 | < 100 nM | Cn1cnnc1CC1(c2cccc(-n3cc4c(C(F)(F)F)cc(CN5CC6(COC6)C5)cn4c3=O)c2)COC1 [Compound 128]
41 | 100 to 300 nM | Cn1cnnc1CC1(c2cccc(-n3cc4c(C(F)(F)F)cc(CN5CC[C@H](O)C5)cn4c3=O)c2)COC1 [Compound 129]
42 | 100 to 300 nM | Cn1cnnc1CC1(c2cccc(-n3cc4c(C(F)(F)F)cc(CN5CC[C@@H](O)C5)cn4c3=O)c2)COC1 [Compound 130]
43 | < 100 nM | Cn1cnnc1CC1(c2cccc(-n3cc4c(C(F)(F)F)cc(CN5CC6(CCO6)C5)cn4c3=O)c2)COC1 [Compound 131]
44 | > 10000 nM | CN(Cc1nncn1C)c1cccc(-n2cc3c(C(F)(F)F)cc(Br)cn3c2=O)c1 [Compound 132]
45 | > 10000 nM | Cn1cnnc1CC1(c2cccc(-n3cc4c(C(F)(F)F)cccn4c3=O)c2)CN(C(=O)OC(C)(C)C)C1 [Compound 133]
46 | 100 to 300 nM | CC(=O)NCc1cc(C(F)(F)F)c2cn(-c3cccc(C4(Cc5nncn5C)COC4)c3)c(=O)n2c1 [Compound 139]
47 | < 100 nM | C[C@H]1CCCN(Cc2cc(C(F)(F)F)c3cn(-c4cccc([C@H](c5nncn5C)C5COC5)c4)c(=O)n3c2)C1 [Compound 140]
48 | 1000 to 3000 nM | Cn1cnnc1C(c1cccc(-n2cc3c(C(F)(F)F)cccn3c2=O)c1)C1COC1 (stereo not drawn) [Compound 141]
49 | > 10000 nM | Cn1cnnc1CC(c1cccc(-n2cc3c(C(F)(F)F)cccn3c2=O)c1)n1cccn1 (stereo not drawn) [Compound 142]
50 | > 10000 nM | CC(=O)N1CC(Cc2nncn2C)(c2cccc(-n3cc4c(C(F)(F)F)cccn4c3=O)c2)C1 [Compound 143]
51 | > 10000 nM | Cn1cnnc1CC1(c2cccc(-n3cc4c(C(F)(F)F)cccn4c3=O)c2)CNC1 [Compound 144]
52 | 100 to 300 nM | [2H]C([2H])([2H])n1cnnc1CC1(c2cccc(-n3cc4c(C(F)(F)F)cc(Br)cn4c3=O)c2)COC1 [Compound 145]
53 | > 10000 nM | Cn1cnnc1CC1(n2cc(-n3cc4c(C(F)(F)F)cccn4c3=O)cn2)COC1 [Compound 146]
54 | > 10000 nM | O=c1n(-c2cccc(C3(Cc4nnco4)COC3)c2)cc2c(C(F)(F)F)cccn12 [Compound 147]

Row | IC50 | SMILES
55 | > 10000 nM | Cn1cnnc1CC(c1ccccc1)c1cccc(-n2cc3c(C(F)(F)F)cccn3c2=O)c1 (stereo not drawn) [Compound 148]
56 | > 10000 nM | Cn1cnnc1CSc1cccc(-n2cc3c(C(F)(F)F)cccn3c2=O)c1 [Compound 149]
57 | < 100 nM | Cn1cnnc1CC1(c2cccc(-n3cc4c(C(F)(F)F)cc(CN5CCOC(C)(C)C5)cn4c3=O)c2)COC1 [Compound 153]
58 | 3000 to 10000 nM | C[C@H]1CCCN(Cc2cc(C(F)(F)F)c3cn(-c4cccc(N(C)Cc5nncn5C)c4)c(=O)n3c2)C1 [Compound 155]
59 | 3000 to 10000 nM | Cn1cnnc1[C@H](c1cccc(-n2cc3c(C(F)(F)F)cc(CN4CC[C@H](F)C4)cn3c2=O)c1)C1CCC1 [Compound 158]
60 | 1000 to 3000 nM | Cn1cnnc1[C@H](c1cccc(-n2cc3c(C(F)(F)F)cc(CN4CCC(C)(F)CC4)cn3c2=O)c1)C1CCC1 [Compound 160]
61 | < 100 nM | Cn1cnnc1CC1(c2cccc(-n3cc4c(C(F)(F)F)cc(CN5CCCC[C@H](O)C5)cn4c3=O)c2)COC1 [Compound 166]
62 | < 100 nM | Cn1cnnc1CC1(c2cccc(-n3cc4c(C(F)(F)F)cc(CN5CCCC[C@@H](O)C5)cn4c3=O)c2)COC1 [Compound 167]
63 | 100 to 300 nM | Cc1conc1CC1(c2cccc(-n3cc4c(C(F)(F)F)cc(Br)cn4c3=O)c2)COC1 [Compound 168]
64 | 1000 to 3000 nM | CNS(=O)(=O)c1cc(C(F)(F)F)c2cn(-c3cccc(C4(Cc5nncn5C)COC4)c3)c(=O)n2c1 [Compound 175]
65 | 301 to 1000 nM | Cn1cnnc1CC1(c2cccc(-n3cc4c(C(F)(F)F)cc(C5CCN(CC(F)(F)F)CC5)cn4c3=O)c2)COC1 [Compound 178]
66 | 100 to 300 nM | Cn1cnnc1CC1(c2cccc(-n3cc4c(C(F)(F)F)cc(C5(O)CCNCC5)cn4c3=O)c2)COC1 [Compound 179]
67 | 3000 to 10000 nM | Cn1cnnc1CC1(c2cc(Br)cc(-n3cc4c(C(F)(F)F)cccn4c3=O)c2)COC1 [Compound 180]
68 | > 10000 nM | Cn1cnnc1COc1cccc(-n2cc3c(C(F)(F)F)cc(Br)cn3c2=O)c1 [Compound 181]
69 | 301 to 1000 nM | CN1CCC(O)(c2cc(C(F)(F)F)c3cn(-c4cccc(C5(Cc6nncn6C)COC5)c4)c(=O)n3c2)CC1 [Compound 182]
